In ChEMBL document CHEMBL1148173, “Three New Onnamide Congeners from the Okinawan Marine Sponge Theonella Sp” (J Nat Prod, 1993) one finds IC50 data, which are given here for five molecules.

In assay [1] the test system is KB. Nature of the assay: Cytotoxicity against human KB cells. Format: functional, cell-based.
Assay [2] relates to L1210. As to the kind of experiment: Cytotoxicity against mouse L1210 cells. Format: functional, cell-based.

Each structure is given as a SMILES string. ≈ marks a conversion by molar mass, not a printed value.

Usually IC50 stands for the concentration needed to halve the response being measured. Higher therefore signals lower potency. With `C=C1C[C@](OC)([C@H](O)C(=O)N[C@H]2OCO[C@H]3[C@@H]2O[C@H](C[C@H](O)CCC/C=C/C=C\C=C\C(=O)N[C@@H](CCCNC(=N)N)C(=O)O)C(C)(C)[C@@H]3OC)O[C@H](C)[C@@H]1C` [4Z-ONNAMIDE A], the values for the half-inhibitory concentration (IC50) in assay [1] and in assay [2] were 2.9 ng/mL (≈ 3.65 nM) and 1.5 ng/mL (≈ 1.89 nM), respectively.
`C=C1C[C@](OC)([C@H](O)C(=O)N[C@H]2OCO[C@H]3[C@@H]2O[C@H](CC(=O)CCCCC/C=C/C=C/C(=O)N[C@@H](CCCNC(=N)N)C(=O)O)C(C)(C)[C@@H]3OC)O[C@H](C)[C@@H]1C` [6,7-DIHYDRO-11-OXO-ONNAMIDE A]: the figures for the half-maximal inhibitory concentration (IC50) in assay [1] and in assay [2] were 23 ng/mL (≈ 29 nM) and 16 ng/mL (≈ 20.2 nM), respectively.
The corresponding values for `C=C1C[C@](OC)([C@H](O)C(=O)N[C@H]2OCO[C@H]3[C@@H]2O[C@H](C[C@H](O)CCCCC/C=C/C=C/C(=O)N[C@@H](CCCNC(=N)N)C(=O)O)C(C)(C)[C@@H]3OC)O[C@H](C)[C@@H]1C` [6,7-DIHYDRO-ONNAMIDE A] are 5 ng/mL (≈ 6.28 nM) and 4.6 ng/mL (≈ 5.78 nM).
With `C=C1C[C@](OC)([C@H](O)C(=O)N[C@H]2OCO[C@H]3[C@@H]2O[C@H](CC(=O)CCC/C=C/C=C/C=C/C(=O)N[C@@H](CCCNC(=N)N)C(=O)O)C(C)(C)[C@@H]3OC)O[C@H](C)[C@@H]1C` [11-OXO-ONNAMIDE A], the figures for the 50% inhibitory concentration (IC50) in assay [1] and in assay [2] were 13 ng/mL (≈ 16.4 nM) and 9.2 ng/mL (≈ 11.6 nM), respectively.
Take `C=C1C[C@](OC)([C@H](O)C(=O)N[C@H]2OCO[C@H]3[C@@H]2O[C@H](C[C@H](O)CCC/C=C/C=C/C=C/C(=O)N[C@@H](CCCNC(=N)N)C(=O)O)C(C)(C)[C@@H]3OC)O[C@H](C)[C@@H]1C` [ONNAMIDE A]: the half-inhibitory concentration (IC50) was 3.6 ng/mL (≈ 4.53 nM) in assay [1] and 2 ng/mL (≈ 2.52 nM) in assay [2].
